According to patent US11807644B2 (PMV Pharmaceuticals, Inc., priority 2020, dated 2023):

Target: T1, recombinant His-tag Y220C p53 DBD protein (Homo sapiens, UniProt P04637, Y220C)
T1 construct: recombinant His-tag Y220C p53 DBD protein (amino acids #˜94-312)
Experiment: In vitro DNA binding activity assay (TR-FRET): binding of His-tag Y220C p53 DBD to biotin-labeled consensus DNA
Type: biochemical
Conditions: SC150 = concentration to increase DNA binding by […], His-tag Y220C p53 DBD, biotin-labeled consensus DNA
Experimental: DNA binding activity of the compounds was measured using a TR-FRET (Time-Resolved Fluorescence Resonance Energy Transfer) assay in which recombinant His-tag Y220C p53 DBD protein binds to biotin-labeled consensus DNA. Binding of recombinant His-tag Y220C p53 DBD protein and biotin-labeled consensus DNA was registered by the FRET (fluorescence resonance energy transfer) between allophycocyanin (APC) conjugated anti-His tag antibody and Europium-(Eu) conjugated Streptavidin.
The compounds of TABLES 1-9 (2 mM stock in dimethylsulfoxide) were diluted 3-fold in series in dimethylsulfoxide. 1.2 μL of a compound solution was added to each well of 384-well polypropylene black plates (NUNC). Thirty μL per well of 181 nM recombinant His-tag Y220C p53 DBD protein (amino acids #˜94-312; SEQ ID NO: 1) and 6.1 nM of APC conjugated anti-His tag antibody (Columbia Biosciences) in ice-cold Assay Buffer 1 (50 mM Tris-HCl, pH 7.4, 75 mM KCl, 0.75 mM DTT and 0.2 mg/ml, BSA) were added. As a background control. 30 μL of Assay Buffer 1 containing 6.1 nM of APC anti-His antibody (No Y220C protein) was also added into a second set of serially diluted compound plates. The samples were spun by centrifuge at 1,200 rpm (Eppendorf 5810R Plate centrifuge) for 1 minute and incubated at room temperature (20° C.) for 15 min. The samples were then further incubated at either 27° C. or 29° C. for 60 min. […] The samples were spun by centrifuge at 1,200 rpm for 1 min and incubated at room temperature (20° C.) for 20 min. Assay signals were monitored by reading excitation at 340 nm, and emission fluorescence at 615 nm and 665 nm on an Envision® reader. Normalized TR-FRET (time-resolved fluorescence resonance energy transfer) assay signal (Rn) was calculated by the formula: Rn=[(A−Ba−C×(D−Bd))/(D−Bd)]×(D−Bd) Wherein: • A is the fluorescence intensity of the sample at 665 nm; • D is the fluorescence intensity of the sample at 615 nm; • Ba and Bd are plate backgrounds at 665 nm and 615 nm, respectively; and • Dc is the fluorescence intensity of 0.67 nM Eu-SA in the assay buffer at 615 nm.
The cross-talk factor (C) was determined by the following formula: C=(Ac−Ba)/(Dc−Bd) wherein Ac is the fluorescence intensity of 0.67 nM Europium (Eu) conjugated Streptavidin in the assay buffer at 665 nm.

| Y220C SC150 (μM) | Compound |
| --- | --- |
| ** (** = 0.1 μM ≤ SC150 < 0.5 μM) | CN1CC[C@H](Nc2cccc3c2cc(-c2nnc(CNC(=O)c4cccs4)o2)n3CC(F)(F)F)[C@H](F)C1 (racemic) [Compound 120B, (+/−)-N-{[5-(4-{[(3R, 4S)-3-fluoro-1-methylpiperidin-4-yl]amino}-1-(2,2,2-trifluoroethyl)-1H-indol-2-yl)-1,3,4-oxadiazol-2-yl]methyl}thiophene-2-carboxamide] |
| **** (**** = 1 μM ≤ SC150 < 10 μM) | CN1CC[C@H](Nc2cccc3c2cc(-c2nnc(CNCC4CC4)o2)n3CC(F)(F)F)[C@H](F)C1 (racemic) [Compound 121B, (+/−)-2-(5-{[(cyclopropylmethyl)amino]methyl}-1,3,4-oxadiazol-2-yl)-N-[(3R,4S)-3-fluoro-1-methylpiperidin-4-yl]-1-(2,2,2-trifluoroethyl)-1H-indol-4-amine] |
| ** (** = 0.1 μM ≤ SC150 < 0.5 μM) | CN1CC[C@H](Nc2cccc3c2cc(-c2nnc(CNc4cccc(S(C)(=O)=O)c4)o2)n3CC(F)(F)F)[C@H](F)C1 (racemic) [Compound 122B, (+/−)-N-[(3R,4S)-3-fluoro-1-methylpiperidin-4-yl]-2-(5-{[(3-methanesulfonylphenyl)amino]methyl}-1,3,4-oxadiazol-2-yl)-1-(2,2,2-trifluoroethyl)-1H-indol-4-amine] |
| ** (** = 0.1 μM ≤ SC150 < 0.5 μM) | COc1cc(S(C)(=O)=O)ccc1NCc1nnc(-c2cc3c(N[C@H]4CCN(C)C[C@@H]4F)cccc3n2CC(F)(F)F)o1 (racemic) [Compound 123B, (+/−)-N-[(3R,4R)-3-fluoro-1-methylpiperidin-4-yl]-2-(5-{[(4-methanesulfonyl-2-methoxyphenyl)amino]methyl}-1,3,4-oxadiazol-2-yl)-1-(2,2,2-trifluoroethyl)-1H-indol-4-amine] |
| * (* = 0 μM ≤ SC150 < 0.1 μM) | CN1CCC(Nc2cccc3c2cc(-c2noc(CNC(=O)[C@@H]4C[C@H]4F)n2)n3CC(F)(F)F)CC1 (racemic) [Compound 145B, (1S,2R)-2-fluoro-N-[(3-{4-[(1-methylpiperidin-4-yl)amino]-1-(2,2,2-trifluoroethyl)-1H-indol-2-yl}-1,2,4-oxadiazol-5-yl)methyl]cyclopropane-1-carboxamide] |
| * (* = 0 μM ≤ SC150 < 0.1 μM) | CN1CCC(Nc2cccc3c2cc(-c2noc(CNC(=O)[C@@H]4C[C@@H]4F)n2)n3CC(F)(F)F)CC1 (racemic) [Compound 147B, (1S,2S)-2-fluoro-N-[(3-{4-[(1-methylpiperidin-4-yl)amino]-1-(2,2,2-trifluoroethyl)-1H-indol-2-yl}-1,2,4-oxadiazol-5-yl)methyl]cyclopropane-1-carboxamide] |
| * (* = 0 μM ≤ SC150 < 0.1 μM) | CN1CCC(Nc2cccc3c2cc(-c2noc(CNC(=O)[C@@H]4C[C@H]4c4ccccc4)n2)n3CC(F)(F)F)CC1 (racemic) [Compound 156B, (+/−)-(1R,2R)—N-[(3-{4-[(1-methylpiperidin-4-yl)amino]-1-(2,2,2-trifluoroethyl)-1H-indol-2-yl}-1,2,4-oxadiazol-5-yl)methyl]-2-phenylcyclopropane-1-carboxamide] |
| * (* = 0 μM ≤ SC150 < 0.1 μM) | C[C@@H]1C[C@H]1C(=O)NCc1nc(-c2cc3c(NC4CCN(C)CC4)cccc3n2CC(F)(F)F)no1 (racemic) [Compound 157B, (+/−)-(1R,2R)-2-methyl-N-[(3-{4-[(1-methylpiperidin-4-yl)amino]-1-(2,2,2-trifluoroethyl)-1H-indol-2-yl}-1,2,4-oxadiazol-5-yl)methyl]cyclopropane-1-carboxamide] |
| * (* = 0 μM ≤ SC150 < 0.1 μM) | C[C@H]1C[C@H]1C(=O)NCc1nc(-c2cc3c(NC4CCN(C)CC4)cccc3n2CC(F)(F)F)no1 (racemic) [Compound 158B, (+/−)-(1R,2S)-2-methyl-N-[(3-{4-[(1-methylpiperidin-4-yl)amino]-1-(2,2,2-trifluoroethyl)-1H-indol-2-yl}-1,2,4-oxadiazol-5-yl)methyl]cyclopropane-1-carboxamide] |
| * (* = 0 μM ≤ SC150 < 0.1 μM) | O=C(NCc1nc(-c2cc3c(NC4CCNC4)cccc3n2CC(F)(F)F)no1)C1CC1 (racemic) [Compound 167B, (+/−)-N-[(3-{4-[(pyrrolidin-3-yl)amino]-1-(2,2,2-trifluoroethyl)-1H-indol-2-yl}-1,2,4-oxadiazol-5-yl)methyl]cyclopropanecarboxamide] |
| * (* = 0 μM ≤ SC150 < 0.1 μM) | CN1CCC(Nc2cccc3c2cc(-c2noc(CNC(=O)C4CC4)n2)n3CC(F)(F)F)C1 (racemic) [Compound 169B, (+/−)-N-[(3-{4-[(1-methylpyrrolidin-3-yl)amino]-1-(2,2,2-trifluoroethyl)-1H-indol-2-yl}-1,2,4-oxadiazol-5-yl)methyl]cyclopropanecarboxamide] |
| * (* = 0 μM ≤ SC150 < 0.1 μM) | CN1CC[C@@H](Nc2cccc3c2cc(-c2noc(CNC(=O)C4CC4)n2)n3CC(F)(F)F)[C@@H](F)C1 (racemic) [Compound 171B, (+/−)-N-{[3-(4-{[(3R,4S)-3-fluoro-1-methylpiperidin-4-yl]amino}-1-(2,2,2-trifluoroethyl)-1H-indol-2-yl)-1,2,4-oxadiazol-5-yl]methyl}cyclopropanecarboxamide] |
| * (* = 0 μM ≤ SC150 < 0.1 μM) | CN1CC[C@@H](Nc2cccc3c2cc(-c2noc(CNC(=O)c4ccccc4)n2)n3CC(F)(F)F)[C@@H](F)C1 (racemic) [Compound 172B, (+/−)-N-{[3-(4-{[(3R,4S)-3-fluoro-1-methylpiperidin-4-yl]amino}-1-(2,2,2-trifluoroethyl)-1H-indol-2-yl)-1,2,4-oxadiazol-5-yl]methyl}benzamide] |
| * (* = 0 μM ≤ SC150 < 0.1 μM) | CN1CC[C@@H](Nc2cccc3c2cc(-c2noc(CNC(=O)c4cccs4)n2)n3CC(F)(F)F)[C@@H](F)C1 (racemic) [Compound 175B, (+/−)-N-{[3-(4-{[(3R,4S)-3-fluoro-1-methylpiperidin-4-yl]amino}-1-(2,2,2-trifluoroethyl)-1H-indol-2-yl)-1,2,4-oxadiazol-5-yl]methyl}thiophene-2-carboxamide] |
| * (* = 0 μM ≤ SC150 < 0.1 μM) | CN1CC[C@@H](Nc2cccc3c2cc(-c2noc(CNC(=O)c4ccsc4)n2)n3CC(F)(F)F)[C@@H](F)C1 (racemic) [Compound 176B, (+/−)-N-{[3-(4-{[(3R,4S)-3-fluoro-1-methylpiperidin-4-yl]amino}-1-(2,2,2-trifluoroethyl)-1H-indol-2-yl)-1,2,4-oxadiazol-5-yl]methyl}thiophene-3-carboxamide] |
| * (* = 0 μM ≤ SC150 < 0.1 μM) | CN1CC[C@@H](Nc2cccc3c2cc(-c2noc(CNc4ccc(S(C)(=O)=O)cc4)n2)n3CC(F)(F)F)[C@@H](F)C1 (racemic) [Compound 177B, (+/−)-N-[(3R,4S)-3-fluoro-1-methylpiperidin-4-yl]-2-(5-{[(4-methanesulfonylphenyl)amino]methyl}-1,2,4-oxadiazol-3-yl)-1-(2,2,2-trifluoroethyl)-1H-indol-4-amine] |
| * (* = 0 μM ≤ SC150 < 0.1 μM) | CCn1ccc(C(=O)NCc2nc(-c3cc4c(N[C@@H]5CCN(C)C[C@@H]5F)cccc4n3CC(F)(F)F)no2)c1 (racemic) [Compound 179B, (+/−)-1-ethyl-N-{[3-(4-{[(3R,4S)-3-fluoro-1-methylpiperidin-4-yl]amino}-1-(2,2,2-trifluoroethyl)-1H-indol-2-yl)-1,2,4-oxadiazol-5-yl]methyl}-1H-pyrrole-3-carboxamide] |
| * (* = 0 μM ≤ SC150 < 0.1 μM) | CN1CC[C@@H](Nc2cccc3c2cc(-c2noc(CNC(=O)[C@H]4C[C@@H]4c4ccccc4)n2)n3CC(F)(F)F)[C@@H](F)C1 (racemic) [Compound 180B, (+/−)-(1R,2R)-N-{[3-(4-{[(3R,4S)-3-fluoro-1-methylpiperidin-4-yl]amino}-1-(2,2,2-trifluoroethyl)-1H-indol-2-yl)-1,2,4-oxadiazol-5-yl]methyl}-2-phenylcyclopropane-1-carboxamide] |
| * (* = 0 μM ≤ SC150 < 0.1 μM) | COc1cc(S(C)(=O)=O)ccc1NCc1nc(-c2cc3c(N[C@@H]4CCN(C)C[C@@H]4F)cccc3n2CC(F)(F)F)no1 (racemic) [Compound 183B, (+/−)-N-[(3R,4S)-3-fluoro-1-methylpiperidin-4-yl]-2-(5-{[(4-methanesulfonyl-2-methoxyphenyl)amino]methyl}-1,2,4-oxadiazol-3-yl)-1-(2,2,2-trifluoroethyl)-1H-indol-4-amine] |
